# Key:
# [1] = Binding affinity to L1 (unknown origin) assessed as inhibition constant; design: species or system Bacteria
# [2] = Inhibition of Sfh-1 (unknown origin); design: species or system Bacteria
# [3] = Binding affinity to VIM-2 (unknown origin) assessed as inhibition constant; design: species or system Bacteria
# [4] = Binding affinity to IMP-1 (unknown origin) assessed as inhibition constant; design: species or system Bacteria
# [5] = Inhibition of IMP-1 (unknown origin); design: species or system Bacteria
# [6] = target: T1, Metallo-beta-lactamase type 2 (Bacteria, UniProt C7C422); assay: Inhibition of NDM-1 (unknown origin) using nitrocefin as substrate by colorimetric assay
# T1 sequence (C7C422 whole entry): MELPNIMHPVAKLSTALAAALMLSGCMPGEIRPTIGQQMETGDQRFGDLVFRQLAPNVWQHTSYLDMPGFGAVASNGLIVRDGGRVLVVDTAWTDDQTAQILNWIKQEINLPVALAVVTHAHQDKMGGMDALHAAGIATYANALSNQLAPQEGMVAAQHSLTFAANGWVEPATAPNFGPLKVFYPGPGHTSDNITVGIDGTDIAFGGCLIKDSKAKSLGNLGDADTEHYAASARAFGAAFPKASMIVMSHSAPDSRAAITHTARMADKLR
# [7] = Inhibition of ImiS (unknown origin); design: species or system Bacteria
# [8] = target: T1, Metallo-beta-lactamase type 2; assay: Binding affinity to NDM-1 (unknown origin) assessed as inhibition constant
# [9] = Inhibition of L1 (unknown origin); design: species or system Bacteria
# [10] = target: T1, Metallo-beta-lactamase type 2; assay: Inhibition of NDM-1 (unknown origin)using fluorescent cephalosporin as substrate preincubated for 10 mins followed by substrate addition by fluorescence based assay
# [11] = Inhibition of CphA (unknown origin); design: species or system Bacteria
# [12] = target: T1, Metallo-beta-lactamase type 2; assay: Inhibition of NDM-1 (unknown origin)
# [13] = Inhibition of BcII (unknown origin); design: species or system Bacteria
# [14] = Binding affinity to Sfh-1 (unknown origin) assessed as inhibition constant; design: species or system Bacteria
# Bacteria [15] = assay: Inhibition of IMP-1 (unknown origin) at 100 uM relative to control
# Bacteria [16] = assay: Inhibition of L1 (unknown origin) at 100 uM relative to control
# [17] = target: Metallo-beta-lactamase type 2 (Bacteria) (UniProt C7C422); assay: Inhibition of NDM-1 (unknown origin) at 100 uM relative to control
# Sequence of Metallo-beta-lactamase type 2 (Bacteria) (C7C422 whole entry): as above
# [18] = Binding affinity to BcII (unknown origin) assessed as inhibition constant; design: species or system Bacteria
# [19] = Inhibition of recombinant VIM-2 (unknown origin); design: species or system Bacteria
compound,measurement,setting,value
O=C(O)[C@@H]1CS[C@H]2CS[C@H](CS)N21,Ki,[1],12000 nM
same,IC50,[2],260 nM
same,Ki,[3],2900 nM
CNCc1ccc([C@@H]2C[C@@H](SC3=C(C(=O)O)N4C(=O)[C@H]([C@@H](C)O)[C@H]4[C@H]3C)CN2)cc1,Ki,[4],180 nM
CCN(CC)C(=S)SSC(=S)N(CC)CC [DISULFIRAM],IC50,[5],2900 nM
same,IC50,[6],130 nM
same,IC50,[7],3600 nM
O=c1c2ccccc2[se]n1-c1ccccc1 [EBSELEN],IC50,[5],1590 nM
same,IC50,[6],72 nM
CCOC(=O)[C@]1(CS)N[C@H](C(=O)O)C(C)(C)S1,Ki,[8],8000 nM
same,IC50,[2],100000 nM
same,IC50,[9],28000 nM
CC(C)c1cccc2c(-c3ccc(Cn4cncn4)cc3)c(C(=O)O)[nH]c12,IC50,[10],1.58 nM
same,IC50,[11],398 nM
same,IC50,[9],5010 nM
O=C(O)c1cccc2c1OB(O)[C@@H](NC(=O)C1CCCCC1)C2,IC50,[12],2040 nM
same,IC50,[11],4420 nM
CC1(C)S[C@H]2CS[C@H](CS)N2[C@@H]1C(=O)O,Ki,[1],11000 nM
same,IC50,[2],360 nM
same,Ki,[3],6000 nM
O=C(CCn1[se]c2ccccc2c1=O)Oc1ccc2ccc(=O)oc2c1,IC50,[5],970 nM
same,IC50,[6],25 nM
same,IC50,[7],12500 nM
CC1(C)[C@H](C(=O)O)N2C(=O)[C@@H](CS)[C@H]2S1(=O)=O,IC50,[13],1400 nM
same,IC50,[9],100 nM
O=C(O)c1cccc2c1OB(O)C(SCc1ccccc1)C2 (centres undefined),IC50,[11],501 nM
same,IC50,[9],5010 nM
O=C(CCn1[se]c2ccccc2c1=O)ON1C(=O)CCC1=O,IC50,[5],530 nM
same,IC50,[6],45 nM
same,IC50,[7],7650 nM
C[C@]1(Cn2ccnn2)[C@H](C(=O)O)N2C(=O)C[C@H]2S1(=O)=O [TAZOBACTAM],Ki,[14],62200 nM
same,Ki,[3],128000 nM
CC(=O)OC1C2CCC(C(=O)O)N2P1(=O)O (centres undefined),inhibition,Bacteria [15],70%
same,inhibition,Bacteria [16],70%
SCC1SCC2Nc3ccccc3N21 (centres undefined),Ki,[8],77000 nM
same,IC50,[2],1400 nM
same,IC50,[9],620 nM
O=C(O)C(=O)CBr [BROMOPYRUVATE],inhibition,Bacteria [16],33.3%
same,IC50,[6],2570 nM
same,inhibition,[17],90.9%
C[C@H](NC(=O)CCS)C(=O)O,Ki,[1],6500 nM
same,Ki,[4],68000 nM
same,Ki,[18],5600 nM
O=C(N[C@@H](C(=O)O)c1ccc(Cn2cnnn2)s1)[C@@H](S)CCc1ccccc1,IC50,[5],90 nM
same,IC50,[9],500 nM
CC(C)c1cccc2c(-c3cc(Cl)cc(Cl)c3)c(C(=O)O)[nH]c12,IC50,[11],630 nM
same,IC50,[9],501 nM
CC(C)c1cccc2c(-c3ccc(CS(C)(=O)=O)c(Cl)c3)c(C(=O)O)[nH]c12,IC50,[10],1.26 nM
same,IC50,[11],1260 nM
same,IC50,[9],50.1 nM
CC1(C)[C@H](C(=O)O)N2C(=O)[C@H](CS)[C@H]2S1(=O)=O,IC50,[13],12000 nM
same,IC50,[9],300 nM
CCN(CC)c1ccc2c(-c3ccccc3C(=O)OCCn3[se]c4ccccc4c3=O)c3ccc(N(CC)CC)cc3[o+]c2c1,IC50,[5],460 nM
same,IC50,[6],16 nM
same,IC50,[7],8620 nM
CCOC(=O)[C@]1(CS)N[C@H](C(=O)O)CS1,Ki,[8],440 nM
same,IC50,[2],1300 nM
same,IC50,[9],20000 nM
NCCN[C@H]1CC[C@H](CC(=O)N[C@H]2Cc3cccc(C(=O)O)c3OB2O)CC1,IC50,[19],5 nM
same,IC50,[11],2510 nM
same,IC50,[9],> 10000 nM
CCN(CC)c1ccc2cc(C(=O)NCCC[Se]C#N)c(=O)oc2c1,IC50,[5],120 nM
same,IC50,[6],81 nM
same,IC50,[7],560 nM
